# Data from patent publication US8895079B2, “Combinations of botanical extracts for promoting cardiovascular health” (National Research Council of Canada, priority 2005, dated 2014).
# Marks after values point to notes of the source that are not given here.
# Assays:
# liver CYP7A1 mRNA = assay: Example 1: liver CYP7A1 mRNA expression, real-time PCR; format: in vivo, Male Golden Syrian hamsters; conditions: relative expression in reference to a housekeeping gene, Example 1, 4 weeks
# Protocol: (§1) Experiments were also conducted to determine the effect on the expression of genes associated with cholesterol in the liver and intestine. Total RNA was extracted and mRNA was converted to cDNA. The mRNA expression was measured by real-time PCR with four repeats and calculated as relative expression in reference to internal control of a housekeeping gene for each sample. Table 5, FIG. 8b and FIG. 8c summarize the effect of BBRCI and PS on the mRNA expression of CYP7A1 and CYP27A1 in the liver. BBRCI and PS alone tended to increase mRNA expression of both genes. CYP7A1 and CYP27A1 are two rate-limiting enzymes controlling bile acid synthesis, which is one mechanism through which the body removes cholesterol by converting it into bile acids. When BBRCI and PS were combined, a synergistic action appeared to happen.
# [1] = tested on: hamsters fed a diet containing 0.25% cholesterol; assay: Example 2: five week hamster study, blood lipid levels, 0.25% cholesterol diet, 1% PS; format: in vivo, male Golden Syrian hamsters; conditions: BBRCI 100 mg/kg·d and/or PS 1% (w/w)
# Protocol: In this example, a controlled, five week animal study was performed. A total of 48 male Golden Syrian hamsters were randomized into 4 groups of 12 and fed isocaloric diets as follows. Hamster husbandry, living and feeding conditions were similar to that used for Example 1. • Control a semi-synthetic casein-corn starch-sucrose diet that contained 0.25% (w/w) cholesterol • BBRCI control diet containing 100 mg/kg·d of BBRCI • PS control diet containing 1% (w/w) PS • BBRCI+PS control diet containing 100 mg/kg·d BBRCI and 1% (w/w) PS One objective of this example was to determine the effects of each intervention on circulating blood lipids including total cholesterol (T-C), high-density-lipoprotein cholesterol (HDL-C), nonHDL-C (which is indicative of LDL-C levels) and triglyceride (TG) profiles when hamsters were fed a diet containing a higher concentration of cholesterol, for example, 0.25% by weight in the diet. Table 6 summarizes the effect on blood lipid levels (values are means±SD, n=12). Data were analyzed by one-way ANOVA followed by Tukey test if significance was detected. A significant difference was indicated by a p<0.05.
# [2] = tested on: rats fed a diet containing 2% cholesterol and 28% fat; assay: Example 4: six week rat study, blood total cholesterol levels; format: in vivo, male Sprague-Dawley rats; conditions: 6 weeks; for T-C: 2% cholesterol 28% fat diet, means±SD, n=10
# Protocol: In this example, a controlled, six week animal study was performed in a different animal model. Six randomized groups of 10 male Sprague-Dawley rats were fed isocaloric diets as follows. […] One objective of this example was to determine the effects of each intervention on plasma cholesterol levels in a different animal model. Table 9 summarizes the effect on blood total cholesterol levels (values are means±SD, n=10).
# intestinal ABCG5 mRNA = assay: Example 1: intestinal ABCG5 mRNA expression, real-time PCR; format: in vivo, Male Golden Syrian hamsters; conditions: intestine; relative expression in reference to a housekeeping gene; Example 1, 4 weeks
# Protocol: (§2) Experiments were also conducted to determine the effect on the expression of genes associated with cholesterol in the liver and intestine. Total RNA was extracted and mRNA was converted to cDNA. The mRNA expression was measured by real-time PCR with four repeats and calculated as relative expression in reference to internal control of a housekeeping gene for each sample. […] The function of ABCG5 and ABCG8 in the intestine is to transport cholesterol out of enterocytes and back to the intestine for elimination via the feces. […] The observation of our study (Example 1) has provided a strong support to the synergistic action of BBRCI and PS on cholesterol reduction.
# [3] = tested on: hamsters fed a diet containing 0.25% cholesterol; assay: Example 3: five week hamster study, blood lipid levels, 0.25% cholesterol diet, 0.5% PS; format: in vivo, male Golden Syrian hamsters; conditions: BBRCI 100 mg/kg·d and/or PS 0.5% (w/w)
# Protocol: In this example, a controlled, five week animal study was performed. Four randomized groups of 12 or 6 male Golden Syrian hamsters were fed isocaloric diets as follows. The dosage of PS was reduced from 1% to 0.5% (w/w) in the diet. Hamster husbandry, living and feeding conditions were similar to that in Example 1. • Control a semi-synthetic casein-corn starch-sucrose diet that contained 0.25% (w/w) cholesterol • BBRCI control diet containing 100 mg/kg·d of BBRCI • PS control diet containing 0.5% (w/w) PS • BBRCI+PS control diet containing 100 mg/kg·d BBRCI and 0.5% (w/w) PS One objective of this example was to determine the effects of each intervention on circulating blood lipids including total cholesterol (T-C), high-density-lipoprotein cholesterol (HDL-C), nonHDL-C (which is indicative of LDL-C levels) and triglyceride (TG) profiles. Table 8 summarizes the effect on blood lipid levels (values are means±SD, n=12). Data were analyzed by one-way ANOVA followed by Tukey test if significance was detected. A significant difference was indicated by a p<0.05. […] When BBRCI and PS were given to hamsters simultaneously, significant synergistic actions were observed on […] and TG levels. A synergistic action of BBRCI and PS was also observed on the ratio of HDL-C and nonHDL-C.
# intestinal ABCG8 mRNA = assay: Example 1: intestinal ABCG8 mRNA expression, real-time PCR; format: in vivo, Male Golden Syrian hamsters; conditions: intestine; relative expression in reference to a housekeeping gene; Example 1, 4 weeks
# Protocol: as §2
# [4] = tested on: hamsters fed an atherogenic control diet; assay: Example 1: tissue weight relative to body weight and histopathological examination of organs; format: in vivo, Male Golden Syrian hamsters
# Protocol: Histopathological testing and examination of gross and microscopic examination of thin sections of the various organs were conducted by a certified pathologist. There were no significant changes in the appearance or weight of brain, lung, heart, spleen and kidney. However, the livers of control animals were observably yellowish and heavier than those of animals treated with BBRCI or plant stanols, or the combination of either. Table 3 summarizes the effect of BBRCI and plant stanols on the percent tissue weight relative to body weight.
# liver CYP27A1 mRNA = assay: Example 1: liver CYP27A1 mRNA expression, real-time PCR; format: in vivo, Male Golden Syrian hamsters; conditions: relative expression in reference to a housekeeping gene, Example 1, 4 weeks
# Protocol: as §1
# [5] = 0.25% cholesterol diet, 5 weeks, means±SD, n=12
# [6] = 0.25% cholesterol diet, 5 weeks, means±SD
smiles,measurement,setting,value
"COc1ccc2cc3[n+](cc2c1OC)CCc1cc2c(cc1-3)OCO2 [BBRCI, Berberine chloride]",CYP7A1 mRNA expression,liver CYP7A1 mRNA,1.30 ± 0.66
same,HDL-C Concentration,[1]; [5],93.1 ± 27.1^ab mg/dl
same,T-C Concentration,[1]; [5],264.7 ± 49.8^a mg/dl
same,TG Concentration,[1]; [5],549.1 ± 225.3^a mg/dl
same,nonHDL-C Concentration,"[1]; 0.25% cholesterol diet, 5 weeks, n=12",173.5 ± 66.5^a mg/dl
same,HDL-C % difference from Control,"[1]; Example 2, 5 weeks",1.7%
same,HDL-C/nonHDL-C % difference from Control,"[1]; Example 2, 5 weeks",29%
same,T-C % difference from Control,"[1]; Example 2, 5 weeks",−7.8%
same,TG % difference from Control,"[1]; Example 2, 5 weeks",−0.2%
same,nonHDL-C % difference from Control,"[1]; Example 2, 5 weeks",−11.1%
same,HDL-C/nonHDL-C,"[1]; ratio, 0.25% cholesterol diet, 5 weeks, n=12",0.66 ± 0.41^ab
same,T-C,[2]; BBRCI 100 mg/kg·d by gavage (BBRCl-1) and/or PS 1% (w/w) in diet,102.1 ± 30.6 mg/dL
same,T-C,"[2]; BBRCI 200 mg/kg·d by gavage (BBRCl-2), alone or with PS 1% (w/w)",109.1 ± 26.7 mg/dL
same,T-C % difference from Control,[2]; BBRCI 100 mg/kg·d (BBRCl-1) and/or PS 1% (w/w),−6.7%
same,T-C % difference from Control,"[2]; BBRCI 200 mg/kg·d (BBRCl-2), alone or with PS 1% (w/w)",−0.3%
same,ABCG5 mRNA expression,intestinal ABCG5 mRNA,2.37 ± 0.70^a
same,nonHDL-C Concentration,"[3]; 0.25% cholesterol diet, 5 weeks",173.5 ± 66.5^ab mg/dl
same,HDL-C Concentration,[3]; [6],93.1 ± 27.1 mg/dL
same,T-C Concentration,[3]; [6],264.7 ± 49.8^a mg/dl
same,TG Concentration,[3]; [6],549.1 ± 225.3^a mg/dl
same,HDL-C % difference from Control,"[3]; Example 3, 5 weeks",1.7%
same,HDL-C/nonHDL-C % difference from Control,"[3]; Example 3, 5 weeks",29%
same,T-C % difference from Control,"[3]; Example 3, 5 weeks",−7.8%
same,TG % difference from Control,"[3]; Example 3, 5 weeks",−0.2%
same,nonHDL-C % difference from Control,"[3]; Example 3, 5 weeks",−11.1%
same,HDL-C/nonHDL-C,"[3]; ratio, 0.25% cholesterol diet, 5 weeks",0.66 ± 0.41^b
same,ABCG8 mRNA expression,intestinal ABCG8 mRNA,1.33 ± 0.45^a
same,"Liver, percent tissue weight relative to body weight","[4]; Example 1, 4 weeks, BBRCI 100 mg/kg·d and/or PS 1% (w/w)",4.4 ± 0.4^b percent
same,appearance of fatty liver,"[4]; Example 1, compared to the livers of the control animals",markedly reduced the appearance of fatty liver
same,CYP27A1 mRNA expression,liver CYP27A1 mRNA,1.27 ± 0.31
